Eight compounds from ChEMBL document CHEMBL1134128, “Rational design of a new series of pronucleotide” (Bioorg Med Chem Lett, 2001) can be followed below.

As a reminder, the CC50 is the concentration giving 50% cytotoxicity. A high value points to better tolerance by the cells. What is called EC50 is the concentration that produces a half-maximal response. A higher EC50 goes with weaker potency. One may read the logP as a log measure of how a compound divides between an organic and an aqueous phase. A lower logP goes with a more hydrophilic compound. In general, pKa refers to the pH at which an ionisable group is half protonated. A higher pKa goes with a weaker acid or stronger base. As a reminder, the half-life is the time in which the quantity being followed falls by half.

Bounds are passed on as bounds.

The subject of the first series is CEM-SS. In words: Cytotoxic concentration to inhibit HIV replication in TK CEM-SS cell line. It counts as functional. Particulars: Homo sapiens.
Compound `Cc1cn([C@H]2C[C@H](N=[N+]=[N-])[C@@H](CO)O2)c(=O)[nH]c1=O` [ZIDOVUDINE] gave a CC50 greater than 100 µM.
`Cc1cn(C2CC(N=[N+]=[N-])C(COP(=O)(NC(C)C)OCCSC(=O)C(C)(C)C)O2)c(=O)[nH]c1=O` (centres undefined) registered a half-maximal cytotoxic concentration (CC50) greater than 100 µM.

Another series has as its system CEM-SS. As to the kind of experiment: Effective concentration to inhibit HIV replication in TK CEM-SS cell line. Particulars: Homo sapiens. In kind it is functional, cell-based.
`Cc1cn([C@H]2C[C@H](N=[N+]=[N-])[C@@H](CO)O2)c(=O)[nH]c1=O` [ZIDOVUDINE] showed an EC50 greater than 100 µM.
Turning to `Cc1cn(C2CC(N=[N+]=[N-])C(COP(=O)(NC(C)C)OCCSC(=O)C(C)(C)C)O2)c(=O)[nH]c1=O` (centres undefined), the EC50 is 0.63 µM. That is a sub-micromolar value.

System in a further series: not listed separately
As to the kind of experiment: Partition coefficient (logP). In kind it is physicochemical. The settings on record: octanol/water.
On to `CCCCNP(=O)(O)OCC1OC(n2cc(C)c(=O)[nH]c2=O)CC1N=[N+]=[N-]` (centres undefined), for which the log partition coefficient (logP) worked out at 2.67.
Still for that read-out and setting: as for `CCCCN(CCCC)P(=O)(O)OCC1OC(n2cc(C)c(=O)[nH]c2=O)CC1N=[N+]=[N-]` (centres undefined), the figure is 4; as for `Cc1cn(C2CC(N=[N+]=[N-])C(COP(=O)(Nc3ccccc3)OCCSC(=O)C(C)(C)C)O2)c(=O)[nH]c1=O` (centres undefined), 2.55; as for `Cc1cn(C2CC(N=[N+]=[N-])C(COP(=O)(NC(C)(C)C)OCCSC(=O)C(C)(C)C)O2)c(=O)[nH]c1=O` (centres undefined), 2.45.
The same measure, in the same setting: as for `Cc1cn(C2CC(N=[N+]=[N-])C(COP(=O)(NC(C)C)OCCSC(=O)C(C)(C)C)O2)c(=O)[nH]c1=O` (centres undefined), the figure is 1.91.
The same measure, in the same setting: as for `Cc1cn(C2CC(N=[N+]=[N-])C(COP(=O)(O)N3CCOCC3)O2)c(=O)[nH]c1=O` (centres undefined), the figure is 1.86.
`Cc1cn(C2CC(N=[N+]=[N-])C(COP(=O)(O)N3CCCCC3)O2)c(=O)[nH]c1=O` (centres undefined) returned a logP of 2.77.

System in another series: not listed separately
As to the kind of experiment: The pKa value was reported. It counts as physicochemical.
Conditions: not given
Take `CCCCNP(=O)(O)OCC1OC(n2cc(C)c(=O)[nH]c2=O)CC1N=[N+]=[N-]` (centres undefined): the pKa came out at 10.6.
`CCCCN(CCCC)P(=O)(O)OCC1OC(n2cc(C)c(=O)[nH]c2=O)CC1N=[N+]=[N-]` (centres undefined) came in with a pKa of 11.2.
The same measure, in the same setting: in the case of `Cc1cn(C2CC(N=[N+]=[N-])C(COP(=O)(Nc3ccccc3)OCCSC(=O)C(C)(C)C)O2)c(=O)[nH]c1=O` (centres undefined) it was 4.68; in that of `Cc1cn(C2CC(N=[N+]=[N-])C(COP(=O)(NC(C)(C)C)OCCSC(=O)C(C)(C)C)O2)c(=O)[nH]c1=O` (centres undefined), 10.4.
In the case of `Cc1cn(C2CC(N=[N+]=[N-])C(COP(=O)(NC(C)C)OCCSC(=O)C(C)(C)C)O2)c(=O)[nH]c1=O` (centres undefined), the pKa is 10.6.
The same measure, in the same setting: in the case of `Cc1cn(C2CC(N=[N+]=[N-])C(COP(=O)(O)N3CCOCC3)O2)c(=O)[nH]c1=O` (centres undefined) it was 8.36.
On the same count and under the same terms, as for `Cc1cn(C2CC(N=[N+]=[N-])C(COP(=O)(O)N3CCCCC3)O2)c(=O)[nH]c1=O` (centres undefined), the figure is 11.1.

For the next series, the system named is CEM-SS. In words: Effective concentration to inhibit HIV replication in TK CEM-SS cell line and the value is represented as EC50. In kind it is functional, cell-based. The settings on record: Homo sapiens.
Regarding `CCCCNP(=O)(O)OCC1OC(n2cc(C)c(=O)[nH]c2=O)CC1N=[N+]=[N-]` (centres undefined), the EC50 came out at 1.2 µM.
Still for that read-out and setting: as for `CCCCN(CCCC)P(=O)(O)OCC1OC(n2cc(C)c(=O)[nH]c2=O)CC1N=[N+]=[N-]` (centres undefined), the figure is greater than 10 µM.
As to `Cc1cn(C2CC(N=[N+]=[N-])C(COP(=O)(Nc3ccccc3)OCCSC(=O)C(C)(C)C)O2)c(=O)[nH]c1=O` (centres undefined), the EC50 was greater than 10 µM.
Same read-out and setting: as for `Cc1cn(C2CC(N=[N+]=[N-])C(COP(=O)(NC(C)(C)C)OCCSC(=O)C(C)(C)C)O2)c(=O)[nH]c1=O` (centres undefined), the figure is 1.5 µM; as for `Cc1cn(C2CC(N=[N+]=[N-])C(COP(=O)(O)N3CCOCC3)O2)c(=O)[nH]c1=O` (centres undefined), 2 µM.
Same read-out and setting: as for `Cc1cn(C2CC(N=[N+]=[N-])C(COP(=O)(O)N3CCCCC3)O2)c(=O)[nH]c1=O` (centres undefined), the figure is 5.2 µM.

The test system of another series is CEM-SS. In words: Cytotoxic concentration to inhibit HIV replication in TK CEM-SS cell line and the value is represented as CC50. Particulars: Homo sapiens. It counts as functional.
The compound `CCCCNP(=O)(O)OCC1OC(n2cc(C)c(=O)[nH]c2=O)CC1N=[N+]=[N-]` (centres undefined) gave a CC50 greater than 100 µM.
Still for that read-out and setting: in the case of `CCCCN(CCCC)P(=O)(O)OCC1OC(n2cc(C)c(=O)[nH]c2=O)CC1N=[N+]=[N-]` (centres undefined) it was greater than 10 µM.
On to `Cc1cn(C2CC(N=[N+]=[N-])C(COP(=O)(Nc3ccccc3)OCCSC(=O)C(C)(C)C)O2)c(=O)[nH]c1=O` (centres undefined), for which the 50% cytotoxic concentration (CC50) was greater than 10 µM.
With `Cc1cn(C2CC(N=[N+]=[N-])C(COP(=O)(NC(C)(C)C)OCCSC(=O)C(C)(C)C)O2)c(=O)[nH]c1=O` (centres undefined), the CC50 was greater than 100 µM.
With `Cc1cn(C2CC(N=[N+]=[N-])C(COP(=O)(O)N3CCOCC3)O2)c(=O)[nH]c1=O` (centres undefined), the CC50 was greater than 100 µM.
Take `Cc1cn(C2CC(N=[N+]=[N-])C(COP(=O)(O)N3CCCCC3)O2)c(=O)[nH]c1=O` (centres undefined): the CC50 was greater than 100 µM.

System in a further series: not listed separately
In words: Half life in human serum. In kind it is ADME, cell-free.
Conditions: not given
With `CCCCNP(=O)(O)OCC1OC(n2cc(C)c(=O)[nH]c2=O)CC1N=[N+]=[N-]` (centres undefined), the half-life was 29 h.
On the same count and under the same terms, as for `CCCCN(CCCC)P(=O)(O)OCC1OC(n2cc(C)c(=O)[nH]c2=O)CC1N=[N+]=[N-]` (centres undefined), the figure is 23 h.
On the same count and under the same terms, as for `Cc1cn(C2CC(N=[N+]=[N-])C(COP(=O)(Nc3ccccc3)OCCSC(=O)C(C)(C)C)O2)c(=O)[nH]c1=O` (centres undefined), the figure is 23 h; as for `Cc1cn(C2CC(N=[N+]=[N-])C(COP(=O)(NC(C)(C)C)OCCSC(=O)C(C)(C)C)O2)c(=O)[nH]c1=O` (centres undefined), 23 h; as for `Cc1cn(C2CC(N=[N+]=[N-])C(COP(=O)(NC(C)C)OCCSC(=O)C(C)(C)C)O2)c(=O)[nH]c1=O` (centres undefined), 10 h.
Take `Cc1cn(C2CC(N=[N+]=[N-])C(COP(=O)(O)N3CCOCC3)O2)c(=O)[nH]c1=O` (centres undefined): the half-life was 23 h.

System in a further series: not listed separately
In words: Half life in culture medium containing 10% of heat inactivated foetal calf serum. Particulars: cattle. In kind it is ADME, cell-free, Bos taurus.
Consider `CCCCNP(=O)(O)OCC1OC(n2cc(C)c(=O)[nH]c2=O)CC1N=[N+]=[N-]` (centres undefined), for which the half-life was 165 h.
On the same count and under the same terms, as for `CCCCN(CCCC)P(=O)(O)OCC1OC(n2cc(C)c(=O)[nH]c2=O)CC1N=[N+]=[N-]` (centres undefined), the figure is 136 h.
In the case of `Cc1cn(C2CC(N=[N+]=[N-])C(COP(=O)(Nc3ccccc3)OCCSC(=O)C(C)(C)C)O2)c(=O)[nH]c1=O` (centres undefined), the half-life is 100 h.
On to `Cc1cn(C2CC(N=[N+]=[N-])C(COP(=O)(NC(C)(C)C)OCCSC(=O)C(C)(C)C)O2)c(=O)[nH]c1=O` (centres undefined), for which the half-life was 350 h. Against the preceding compound, the half-life is about 3.5-fold higher.
`Cc1cn(C2CC(N=[N+]=[N-])C(COP(=O)(NC(C)C)OCCSC(=O)C(C)(C)C)O2)c(=O)[nH]c1=O` (centres undefined): the half-life was 200 h. This half-life is about 1.8-fold lower than that of the compound before.
Same read-out and setting: in the case of `Cc1cn(C2CC(N=[N+]=[N-])C(COP(=O)(O)N3CCOCC3)O2)c(=O)[nH]c1=O` (centres undefined) it was 385 h.

System in the next series: not listed separately
In words: Half life were determined in CEM-SS cell extract in decomposition step 1. The settings on record: human. In kind it is ADME.
As for `CCCCNP(=O)(O)OCC1OC(n2cc(C)c(=O)[nH]c2=O)CC1N=[N+]=[N-]` (centres undefined), the half-life is 1.3 h.
Same read-out and setting: as for `CCCCN(CCCC)P(=O)(O)OCC1OC(n2cc(C)c(=O)[nH]c2=O)CC1N=[N+]=[N-]` (centres undefined), the figure is 0.96 h.
The compound `Cc1cn(C2CC(N=[N+]=[N-])C(COP(=O)(Nc3ccccc3)OCCSC(=O)C(C)(C)C)O2)c(=O)[nH]c1=O` (centres undefined) gave a half-life of 1.4 h.
Regarding `Cc1cn(C2CC(N=[N+]=[N-])C(COP(=O)(NC(C)(C)C)OCCSC(=O)C(C)(C)C)O2)c(=O)[nH]c1=O` (centres undefined), the half-life is 1.2 h. The half-life values of the last two compounds are within 1.5-fold of each other.
Take `Cc1cn(C2CC(N=[N+]=[N-])C(COP(=O)(NC(C)C)OCCSC(=O)C(C)(C)C)O2)c(=O)[nH]c1=O` (centres undefined): the half-life was 1.2 h.
In the case of `Cc1cn(C2CC(N=[N+]=[N-])C(COP(=O)(O)N3CCOCC3)O2)c(=O)[nH]c1=O` (centres undefined), the half-life is 2.1 h.
`Cc1cn(C2CC(N=[N+]=[N-])C(COP(=O)(O)N3CCCCC3)O2)c(=O)[nH]c1=O` (centres undefined) showed a half-life of 1.2 h.
